Measurements: article PMC9455338, “Design, synthesis, and biological evaluation of potent FAK-degrading PROTACs” (Journal of Enzyme Inhibition and Medicinal Chemistry, 2022)

Experiments:
[1] = target: T1, FAK (Homo sapiens, UniProt Q05397); assay: biochemical; design: HTRF KinEASE-TK kinase assay with purified FAK, inhibition of substrate phosphorylation; details: for inhibition at 0.1 µM: read-out: FAK inhibition (%)^a / 0.1 μM; for inhibition at 0.5 µM: read-out: FAK inhibition (%)^a / 0.5 μM
T1 construct: gene PTK2
T1 sequence (Q05397 2-1052): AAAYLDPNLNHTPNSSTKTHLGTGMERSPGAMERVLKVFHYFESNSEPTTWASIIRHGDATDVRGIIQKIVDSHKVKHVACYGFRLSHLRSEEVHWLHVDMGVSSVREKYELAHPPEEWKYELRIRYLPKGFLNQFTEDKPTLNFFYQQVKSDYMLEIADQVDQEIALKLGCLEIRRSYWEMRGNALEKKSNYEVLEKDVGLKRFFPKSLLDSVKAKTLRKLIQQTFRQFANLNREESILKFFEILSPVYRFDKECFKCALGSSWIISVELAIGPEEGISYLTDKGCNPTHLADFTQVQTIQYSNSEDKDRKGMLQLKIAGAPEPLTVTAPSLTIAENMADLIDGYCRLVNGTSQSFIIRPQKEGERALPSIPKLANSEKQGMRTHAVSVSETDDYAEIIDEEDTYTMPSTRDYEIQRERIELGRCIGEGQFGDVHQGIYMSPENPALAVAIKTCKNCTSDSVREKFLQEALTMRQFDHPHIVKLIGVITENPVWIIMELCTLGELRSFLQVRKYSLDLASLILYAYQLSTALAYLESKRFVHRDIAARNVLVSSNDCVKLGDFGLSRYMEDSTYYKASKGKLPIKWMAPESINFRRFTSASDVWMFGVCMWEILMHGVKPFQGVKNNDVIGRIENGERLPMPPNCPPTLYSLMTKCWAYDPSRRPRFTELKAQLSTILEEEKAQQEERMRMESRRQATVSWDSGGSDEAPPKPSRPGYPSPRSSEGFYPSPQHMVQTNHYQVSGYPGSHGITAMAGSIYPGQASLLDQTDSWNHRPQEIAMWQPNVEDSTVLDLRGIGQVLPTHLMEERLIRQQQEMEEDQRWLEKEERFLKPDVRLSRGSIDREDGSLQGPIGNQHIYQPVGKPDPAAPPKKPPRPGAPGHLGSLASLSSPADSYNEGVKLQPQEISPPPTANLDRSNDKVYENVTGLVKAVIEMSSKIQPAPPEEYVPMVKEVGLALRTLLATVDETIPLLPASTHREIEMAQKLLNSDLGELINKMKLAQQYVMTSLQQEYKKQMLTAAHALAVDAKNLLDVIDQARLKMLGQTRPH
Procedure: The FAK kinase assay was performed using the HTRF® KinEASE™-TK kit (Cisbio Bioassays, France) in white 384-well small volume plates with a total working volume of 20 μL. Purified FAK enzyme was purchased from Carna Biosciences (Japan). Compounds were diluted step-by-step from a concentrated stock of 8 mM in 100% DMSO and with serial kinase reaction buffer dilutions. The IC50 measurements were performed in replicates. […] The assay plates were incubated at 30 °C for 50 min and reactions were terminated by adding 10 μL of mix 2 (Sa-XL665 + TK-Antibody-Cryptate). After a final incubation (60 min at room temperature), HTRF signals were obtained by reading plates using an Infinite® F500 microplate reader (Tecan, Switzerland). […] For IC50 measurements, values were normalised and fitted with Graphpad prism 8.3.0.

[2] = target: T1, FAK; assay: HTRF KinEASE-TK kinase assay, purified FAK (Carna)
[3] = target: T1, FAK; assay: HTRF kinase assay, % inhibition at […]; assay type: biochemical

Row | inhibition at 0.1 µM [1] [%] | inhibition at 0.5 µM [1] [%] | IC50 [2] [nM] | inhibition at 0.1 µM [3] [%] | Compound
1 | 94.9 | 98 | 22.3 | – | CN(c1ccccc1CNc1nc(Nc2ccc(N3CCN(CCOCCOCCNC(=O)CNc4cccc5c4C(=O)N(C4CCC(=O)NC4=O)C5=O)CC3)cc2)ncc1C(F)(F)F)S(C)(=O)=O (stereo not shown) [A1, 2-{[2–(2,6-Dioxopiperidin-3-yl)-1,3-dioxoisoindolin-4-yl]amino}-N-(2-{2-[2–(4-{4-[(4-{[2-(N-methylmethylsulfonamido)benzyl]amino}-5-(trifluoromethyl)pyrimidin-2-yl)amino]phenyl}piperazin-1-yl)ethoxy]ethoxy}ethyl)acetamide]
2 | – | 98.8 | – | 89 | CN(c1ccccc1CNc1nc(Nc2ccc(N3CCN(CCCOCCC(=O)NCCNc4cccc5c4C(=O)N(C4CCC(=O)NC4=O)C5=O)CC3)cc2)ncc1C(F)(F)F)S(C)(=O)=O (stereo not shown) [A2, N-(2-{[2–(2,6-dioxopiperidin-3-yl)-1,3-dioxoisoindolin-4-yl]amino}ethyl)-3-[3–(4-{4-[(4-{[2-(N-methylmethylsulfonamido)benzyl]amino}-5-(trifluoromethyl)pyrimidin-2-yl)amino]phenyl}piperazin-1-yl)propoxy]propanamide]
3 | – | 98 | – | 91.2 | CN(c1ccccc1CNc1nc(Nc2ccc(N3CCN(CCCCC(=O)Nc4cccc5c4C(=O)N(C4CCC(=O)NC4=O)C5=O)CC3)cc2)ncc1C(F)(F)F)S(C)(=O)=O (stereo not shown) [A5]
4 | 88.2 | 96.8 | 24.4 | – | CN(c1ccccc1CNc1nc(Nc2ccc(N3CCN(CCCCCC(=O)Nc4cccc5c4C(=O)N(C4CCC(=O)NC4=O)C5=O)CC3)cc2)ncc1C(F)(F)F)S(C)(=O)=O (stereo not shown) [A6, N-(2–(2,6-Dioxopiperidin-3-yl)-1,3-dioxoisoindol-4-yl)-6–(4-{4-[(4-{[2-(N-Methylmethylsulfonamido)benzyl]amino}-5-(trifluoromethyl)pyrimidin-2-yl)amino]phenyl}piperazin-1-yl)hexanamide]
5 | – | 95.4 | – | 87.5 | CN(c1ccccc1CNc1nc(Nc2ccc(N3CCN(CCCCCCC(=O)Nc4cccc5c4C(=O)N(C4CCC(=O)NC4=O)C5=O)CC3)cc2)ncc1C(F)(F)F)S(C)(=O)=O (stereo not shown) [A7, N-[2–(2,6-Dioxopiperidin-3-yl)-1,3-dioxoisoindol-4-yl]-7–(4-{4-[(4-{[2-(N-Methylmethylsulfonamido)benzyl]amino}-5-(trifluoromethyl)pyrimidin-2-yl)amino]phenyl}piperazin-1-yl)heptamide]
6 | – | 98.6 | – | 93.5 | CN(c1ccccc1CNc1nc(Nc2ccc(N3CCN(CCCCC(=O)NCCNc4cccc5c4C(=O)N(C4CCC(=O)NC4=O)C5=O)CC3)cc2)ncc1C(F)(F)F)S(C)(=O)=O (stereo not shown) [A11, N-(2-{[2–(2,6-Dioxopiperidin-3-yl)-1,3-dioxoisoindolin-4-yl]amino}ethyl)-5–(4 –{4-[(4-{[2-(N-Methylmethylsulfonamido)benzyl]amino}-5-(trifluoromethyl)pyrimidin-2-yl)amino]phenyl}piperazine-1-yl)pentanamide]
7 | – | 98 | – | 86.1 | CN(c1ccccc1CNc1nc(Nc2ccc(N3CCN(CCCCCC(=O)NCCNc4cccc5c4C(=O)N(C4CCC(=O)NC4=O)C5=O)CC3)cc2)ncc1C(F)(F)F)S(C)(=O)=O (stereo not shown) [A12, N-(2-{[2–(2,6-Dioxopiperidin-3-yl)-1,3-dioxoisoindolin-4-yl]amino}ethyl)-6–(4-{4-[(4-{[2-(N-methylmethylsulfonamido)benzyl]amino}-5-(trifluoromethyl)pyrimidin-2-yl)amino]phenyl}piperazine-1-yl)hexanamide]
8 | 84.4 | 96.9 | 26.4 | – | CN(c1ccccc1CNc1nc(Nc2ccc(N3CCN(CCCCCCC(=O)NCCNc4cccc5c4C(=O)N(C4CCC(=O)NC4=O)C5=O)CC3)cc2)ncc1C(F)(F)F)S(C)(=O)=O (stereo not shown) [A13, N-(2-{[2–(2,6-Dioxopiperidin-3-yl)-1,3-dioxoisoindolin-4-yl]amino}ethyl)-7–(4 -{4-[(4-{[2-(N-methylmethylsulfonamido)benzyl]amino}-5-(trifluoromethyl)pyrimidin-2-yl)amino]phenyl}piperazine-1-yl)heptamide]
